Results taken from paper PMC8744746 (International Journal of Molecular Sciences, 2021).
Several values for one entry are separate records, joined by “and”; a condition that tells them apart may be missing. Equal values may be shown once. Entries after “also recorded” stand apart in the source; their conditions may differ. Read-outs that look alike come from different tables or passages of the source.

How the values were obtained:
[1] = tested on: Toxoplasma RH strain tachyzoites; conditions: read-out: EC50, Toxoplasma RH Strain; plaque area relative to control after 7 days in HFF monolayers
Method: (§1) To assess this, we gauged the therapeutic index by measuring compound EC50 for Toxoplasma tachyzoites grown in vertebrate host cells versus the CC50 for uninfected human foreskin fibroblast (HFF) cells. […] After 1 week of parasite growth, we visualized lytic destruction of crystal violet-stained host cells to reveal macroscopic plaques in the monolayer (Figure 2B). Greyscale images of individual wells were analyzed with the open-source program ImageJ [18] using the “threshold” functionality to differentiate between cells (dark gray) and plaques (white). The program calculates plaque number, average size, and percent total area within the field. The EC50 value is determined by graphing the relationship between compound concentrations and percent total plaque area relative to control cultures. […] HFF cells were grown to confluency in 6-well dishes and infected with 300 tachyzoites/well. Individual wells were treated with varying concentrations of drug, and the plates were left undisturbed for 7 days at 37 °C in a humidified 5% CO2 incubator. […] Greyscale photographic images of the plates were analyzed in ImageJ (NIH, Bethesda, MD, USA) using the “threshold” functionality. Plaque number, average size and percent total area were calculated by the program. […]

[2] = tested on: Toxoplasma RH strain tachyzoites; assay: microbe, parasite or virus in culture; conditions: 168 h, read-out: EC50, Toxoplasma RH Strain, plaque area relative to control after 7 days in HFF monolayers
Method: as §1

RH-GFP T. gondii = conditions: GFP-expressing parasites per vacuole, tracked up to 36 h
in vitro = conditions: human
Method: Because replicating cells may be more vulnerable than confluent monolayers, we evaluated survival of both subconfluent (dividing) and confluent (contact-inhibited) HFF cultures after 72 h of exposure to increasing drug concentrations (Supplemental Figure S4). […] Using this information, we calculated the in vitro therapeutic index for these drugs, which is the ratio of the CC50 to the EC50.
For subconfluent monolayers, approximately 5 × 10^4 HFF cells were plated into each well of a 24-well dish and exposed to D10+ media alone or D10+ with DMSO or drug for 3 days. The plates were processed with the In Vitro Toxicology Assay Kit, MTT based (Sigma Aldrich, TOX1), and A570 was measured in a SpectraMax I3X plate reader. Exported data were analyzed using Microsoft Excel. For confluent monolayers, approximately 5 × 10^4 HFF cells were plated into each well of a 24-well dish and grown in D10+ media alone. Once the cells were confluent, they were gently rinsed with PBS, and D10+ with DMSO or drug was added to each well. The plates were processed as above.

HFF cell microtubules = assay: Tubulin immunofluorescence and SFEX quantification of vertebrate microtubules; assay type: cell-based, human; conditions: at or above the EC50 for oryzalin, clemastine, astemizole; versus vehicle control
Method: Vertebrate sensitivity is assessed using tubulin immunofluorescence to visualize microtubule networks after drug treatment of uninfected human HFF cells in culture (Figure 3A). To quantify microtubule polymer density between treatments, we used the SFEX program [19] to segment and enumerate filaments in a fixed-size region of interest. Treatment with the vertebrate microtubule-depolymerizing colchicine-site ligand combretastatin A4 [32] was used as a positive control to ensure that the SFEX parameters captured partial, as well as total, loss of cytoplasmic microtubules.
HFF cells were seeded subconfluently onto sterile 12-mm circular glass coverslips in 6-well dishes. Cells were grown to semiconfluency (3–4 days). Cultures were exposed to DMSO (vehicle control) and drugs of interest for 60 min at 37 °C. These samples were fixed and permeabilized with ice-cold methanol for 3–5 min and blocked in 10% BSA in Ca^2+, Mg^2+-free PBS at room temperature for 30 min or overnight at 4 °C. […] The open-source software Stress Fiber Extractor 1.0 [19] was used to quantify assembled tubulin (microtubules) present in HFF-cell immunofluorescence images within MATLAB R2015a, using the “Stress Fiber Network” analysis feature. […] Quantitative analysis of the segmented filaments was performed with the Stress Fiber Extractor, with export of data into Excel (Microsoft, Redmond, WA, USA). […]

[3] = tested on: Toxoplasma tachyzoite subpellicular microtubules; assay: Subpellicular microtubule length in deoxycholate-extracted tachyzoites (ImageJ); assay type: cell-based, Toxoplasma gondii; conditions: drug-treated tachyzoites versus vehicle controls
Method: In parallel, we assessed the effect of these candidate tubulin-targeting agents on parasite microtubules, also via tubulin immunofluorescence. Because tachyzoite subpellicular microtubules are unusually resistant to detergent extraction due to the association of SPM1 and other stabilizing luminal proteins, these structures can be specifically isolated for analysis. Vehicle- and drug-treated parasites were incubated with deoxycholate, and the extracted subpellicular microtubule arrays were detected with tubulin immunofluorescence (Figure 4A). Images of parasite microtubules were measured using ImageJ.
To measure the length distribution of Toxoplasma tachyzoite subpellicular microtubules in control and treated parasites, we isolated subpellicular microtubule complexes by deoxycholate extraction of freshly lysed tachyzoites. Briefly, RH parasites were treated with DMSO or candidate drugs in culture for 2 days. Following lysis of host cells, extracellular parasites were centrifuged at 1000× g for 20 min at 4 °C and then resuspended in 1 mL of PBS. Parasites were settled onto poly-l-lysine (Sigma)-coated coverslips for 15 min at room temperature. Coverslips were incubated with 10 mg/mL deoxycholate (DOC) in phosphate-buffered saline (PBS) for 10 min to extract the subpellicular microtubule cytoskeleton. Samples were fixed in 3.7% formyl saline (Sigma) at room temperature for 10–15 min, followed by immunostaining for tubulin, as described above. Extracted subpellicular microtubules in immunofluorescence images were measured using ImageJ.

RH-GFP parasites = assay type: cell-based, Toxoplasma gondii; conditions: drugs at their EC50 concentrations, clemastine +/− pretreatment
Method: The red-green invasion assay using GFP-expressing tachyzoites was adapted from the original protocol. HFF cells were grown to confluency on coverslips in 6-well dishes. RH-GFP parasites were harvested from infected host cells by syringe passage through a 27-gauge needle. Tachyzoites were allowed to adhere to host cells for 20 min at 37 °C in a high-potassium “Endo” buffer. The buffer was replaced with warm invasion medium (DMEM + various drug conditions). Parasite invasion occurred under control or drug-treated conditions for 3 min (short invasion time) or 30 min (long invasion time) at 37 °C in a humidified 5% CO2 incubator. After invasion, samples were washed with PBS, fixed with formyl saline without subsequent permeabilization, stained with mouse anti-SAG1 antibody (Invitrogen, Waltham, MA, USA: D61S, 1:1000), and detected with a goat anti-mouse secondary antibody conjugated to Alexa Fluor 594 (Invitrogen A11005, 1:1000). Extracellular, invading, and intracellular parasites were scored from 10 random microscope fields. Invasion was calculated by dividing the number of intracellular parasites by the total number of parasites counted.

[4] = tested on: α-tubulin in T. gondii tachyzoites; assay: Immunoblot quantification of α-tubulin protein in tachyzoites; assay type: cell-based, Toxoplasma gondii; conditions: clemastine-treated tachyzoites (8 μM in Figure 4D); DMSO control 0.022
Description: Parasite equivalents and known concentrations of porcine tubulin standards were resolved by SDS-PAGE for subsequent immunoblot analysis using a broadly cross-reacting α-tubulin monoclonal antibody that recognizes both vertebrate and Toxoplasma tubulin. Band intensity was quantified with ImageJ, and the porcine samples were used to create a standard curve to determine α-tubulin concentration in Toxoplasma samples normalized to parasite equivalents.
The samples were resolved on a 10% SDS-polyacrylamide gel (Bio-Rad) and blotted to nitrocellulose for immunoblot analysis. Blots were probed with a mouse anti-α-tubulin antibody (Sigma T9026; 1:5000) and detected with an IgG anti-mouse secondary antibody conjugated to HRP (Promega, Madison, WI, USA: W4021, 1:10,000). Samples were imaged using a Nikon D700 fitted with a 55 mm f/1.4 Nikkor auto-focus lens and intervening 12 mm Kenko auto-focus extension tube [46]. Exposure times were controlled with a Satechi TRC-B remote shutter control. Band intensity was quantified using ImageJ.

Toxoplasma = tested on: Toxoplasma; set-up: method as in PMID 28609444; conditions: cited from earlier work

Row | Molecule | Effect on tachyzoite replication (RH-GFP T. gondii) | Effect on vertebrate (HFF) microtubules, in words (HFF cell microtubules) | Effect on Toxoplasma subpellicular microtubule length, in words [3] | Effect on tachyzoite invasion (RH-GFP parasites) | further results
1 | COc1ccc(CCN2CCC(Nc3nc4ccccc4n3Cc3ccc(F)cc3)CC2)cc1 [Astemizole] | No delays in replication are detected at 36 hours; also recorded: did not detect overt slowing of replication | do not significantly differ from the vehicle control | smaller but significant decreases in filament length; also recorded: small but significant decrease in microtubule length | does not affect invasion | EC50 [1]: 2070 nM; EC50 [2]: ~2000 nM; CC50 at 72 h (in vitro; HFF CC50 confluent): 18000 nM; CC50 at 72 h (in vitro; HFF CC50 subconfluent): 8830 nM
2 | CN1CCC[C@@H]1CCO[C@](C)(c1ccccc1)c1ccc(Cl)cc1 [Clemastine] | No delays in replication are detected at 36 hours; also recorded: did not detect overt slowing of replication | – | – | does not affect invasion | α-tubulin (pg)/tachyzoite [4]: 0.02 pg/tachyzoite and ~ 0.02 pg/tachyzoite
3 | COc1ccc(/C=C\c2cc(OC)c(OC)c(OC)c2)cc1O [Combretastatin A4, combretastatin A4] | – | dose-dependent microtubule disassembly | – | – | –
4 | CCc1nc(N)nc(N)c1-c1ccc(Cl)cc1 [Pyrimethamine] | – | – | does not reduce microtubule length | – | Effect on Toxoplasma subpellicular microtubule length, in words ([3]; listed as pyrimethamine): not different to that of the vehicle controls
5 | OCCOCCN1CCN(C(c2ccccc2)c2ccc(Cl)cc2)CC1 (stereo not shown) [hydroxyzine] | – | – | – | – | EC50 (Toxoplasma): 1000 nM
6 | Parabulin | – | – | significant reduction in microtubule length; also recorded: significant microtubule shortening relative to control samples | – | –
